In patent US20240207302A1, “ANTIVIRAL COMPOUNDS, METHODS FOR THE MANUFACTURING OF COMPOUNDS, ANTIVIRAL PHARMACEUTICAL COMPOSITION, USE OF THE COMPOUNDS AND METHOD FOR THE ORAL TREATMENT OF CORONAVIRUS INFECTION AND RELATED DISEASES THEREOF” (priority 2021, published 2024):

How the values were obtained:
[1] = Toxicokinetics in the 28-day study; format: in vivo, mice; conditions: for AUC / Cmax / Tmax / half-life: CD1, mouse, in vivo, po
TNF-α and IL-6 = TNF-α and IL-6 levels in supernatant of SARS-COV-2-infected human primary monocytes; format: cell-based; conditions: 24 h
Description: FIG. 5A, 5B and 5C. The compounds impair SARS-COV-2 RNA synthesis and SARS-COV-2-induced release of inflammatory mediators in human primary monocytes.
Human primary monocytes were obtained after 3 h of plastic adherence of peripheral blood mononuclear cells (PBMCs). PBMCs were isolated from healthy donors by density gradient centrifugation (Ficoll-Paque, GE Healthcare). PBMCs (2.0×10^6 cells) were plated onto 48-well plates (NalgeNunc) in RPMI-1640 without serum for 2 to 4 h. Non-adherent cells were removed, and the remaining monocytes were maintained in DMEM with 5% human serum (HS; Millipore) and penicillin/streptomycin. Monocytes were infected at MOI of 0.1. After 1 h inoculation period, cells were washed with phosphate saline buffer (PBS) to remove unbounded viruses and treated with 1 μM of the indicated compounds. After 24 h after infection, cell monolayers werc lysed total viral RNA was extracted, quantitative RT-PCR was performed, to detect the SARS-COV-2 and the housekeeping gene RNAse P.

[2] = Pharmacokinetics of MB-905 in plasma of mice
Text: FIG. 8A to 8F. […] The number of animals is shown in each figure legends. The vertical lines represent the mean±the standard error deviation.
All animals were maintained under SPF (Specific Pathogen Frec) animal conditions and were obtained from CIEnP facility, whose breeding colonies were purchased from Charles River Laboratories (USA). […] The samples collected from each animal and at each collection time were processed and analyzed individually. For the analysis of plasma and lung, UPLC-MS/MS equipment was used, whose system consists of a Xevo TQS mass spectrometer with a triple-quadrupole mass analyzer, from Waters. The mass spectrometer is coupled to a high-performance liquid chromatograph (Acquity H-Class). The acquisition and treatment of the data were performed with the MassLynx software. […] The calculation of bioavailability was performed using the following equation: F (%)=[(Intravenous dose×oral AUC)/(Oral dose×Intravenous AUC)]×100.

[3] = system: Salmonella typhimirium TA 97a, TA 98, TA 100, TA 102 and TA 1535; assay: Bacterial reverse mutation (Ames) test
SARS-COV-2 = SARS-COV-2 viral RNA synthesis in HuH-7 cells (real time RT-PCR); format: cell-based
[4] = female, 10 mg/kg, female mice, 10 mg/kg, Day 0
[5] = female, 10 mg/kg, female mice, 10 mg/kg, Day 28
[6] = female, 80 mg/kg, female mice, 80 mg/kg, Day 0
[7] = female, 80 mg/kg, female mice, 80 mg/kg, Day 28
[8] = female, 250 mg/kg, female mice, 250 mg/kg, Day 0
[9] = female, 250 mg/kg, female mice, 250 mg/kg, Day 28
[10] = male, 10 mg/kg, male mice, 10 mg/kg, Day 0
[11] = male, 10 mg/kg, male mice, 10 mg/kg, Day 28
[12] = male, 80 mg/kg, male mice, 80 mg/kg, Day 0
[13] = male, 80 mg/kg, male mice, 80 mg/kg, Day 28
[14] = male, 250 mg/kg, male mice, 250 mg/kg, Day 0
[15] = male, 250 mg/kg, male mice, 250 mg/kg, Day 28
[16] = both, CD1, mouse, plasma, iv, 3 mg/kg
[17] = both, CD1, mouse, plasma, po, 30 mg/kg

**Q.** Which results are given for `c1coc(CNc2ncnc3[nH]cnc23)c1` [MB-905, kinetin]?
**A.** AUC [1, 4]: 422 ng·h/mL; Cmax [1, 4]: 288 ng/mL; Tmax [1, 4]: 15 min; AUC [1, 5]: 56.6 ng·h/mL; Cmax [1, 5]: 95 ng/mL; Tmax [1, 5]: 15 min; AUC [1, 6]: 5010 ng·h/mL; Cmax [1, 6]: 747 ng/mL; Tmax [1, 6]: 15 min; half-life [1, 6]: 1550 min; AUC [1, 7]: 1590 ng·h/mL; Cmax [1, 7]: 464 ng/mL; Tmax [1, 7]: 15 min; half-life [1, 7]: 65.4 min; AUC [1, 8]: 4910 ng·h/mL; Cmax [1, 8]: 898 ng/mL; Tmax [1, 8]: 15 min; half-life [1, 8]: 185 min; AUC [1, 9]: 2080 ng·h/mL; Cmax [1, 9]: 716 ng/mL; Tmax [1, 9]: 15 min; half-life [1, 9]: 155 min; AUC [1, 10]: 91 ng·h/mL; Cmax [1, 10]: 99 ng/mL; Tmax [1, 10]: 15 min; AUC [1, 11]: 121 ng·h/mL; Cmax [1, 11]: 144 ng/mL; Tmax [1, 11]: 15 min; AUC [1, 12]: 1020 ng·h/mL; Cmax [1, 12]: 598 ng/mL; Tmax [1, 12]: 15 min; half-life [1, 12]: 72.6 min; AUC [1, 13]: 1170 ng·h/mL; Cmax [1, 13]: 750 ng/mL; Tmax [1, 13]: 15 min; AUC [1, 14]: 4480 ng·h/mL; Cmax [1, 14]: 793 ng/mL; Tmax [1, 14]: 60 min; AUC [1, 15]: 1130 ng·h/mL; Cmax [1, 15]: 588 ng/mL; Tmax [1, 15]: 15 min; half-life [1, 15]: 91.8 min; accumulation (AUCall and Cmax day 0 vs day 28) ([1]; mice, males and females): no there was an accumulation; SARS-CoV-2-induced enhancement of IL-6 levels in culture supernatant (TNF-α and IL-6): reduced; SARS-CoV-2-induced enhancement of TNF-α levels in culture supernatant (TNF-α and IL-6): reduced; Cmax [2, 16]: 135 ng/mL; Vd [2, 16]: 19.4 L/kg; AUC(0-t) [2, 17]: 366 ng·h/mL; Cmax [2, 17]: 570 ng/mL; half-life [2, 17]: 66 min; Cmax ([2]; both, CD1, mouse, plasma, po, 550 mg/kg): 1050 ng/mL; AUCall ([2]; mice plasma, 3 mg/kg (i.v.)): 66.41 ng·h/mL; CL ([2]; mice plasma, 3 mg/kg (i.v.)): 918.38 mL/min/kg; Cmax ([2]; mice plasma, 3 mg/kg (i.v.)): 155.16 ng/mL; F ([2]; mice plasma, 3 mg/kg (i.v.)): 100%; Ke ([2]; mice plasma, 3 mg/kg (i.v.)): 3.09 h⁻¹; T1/2 ([2]; mice plasma, 3 mg/kg (i.v.)): 13.2 min; Tmax ([2]; mice plasma, 3 mg/kg (i.v.)): 4.98 min; Vz ([2]; mice plasma, 3 mg/kg (i.v.)): 19.04 L/kg; AUClast ([2]; mice plasma, 3 mg/kg (i.v.), 3 mg/kg): 55.58 ng·h/mL; CL ([2]; mice plasma, 30 mg/kg (v.o.)): 1060.15 mL/min/kg; Ke ([2]; mice plasma, 30 mg/kg (v.o.)): 0.62 h⁻¹; Vz ([2]; mice plasma, 30 mg/kg (v.o.)): 102.21 L/kg; F ([2]; mice plasma, 30 mg/kg (v.o.), 30 mg/kg): 53,5%; Ke ([2]; mice plasma, 550 mg/kg (v.o.)): 0.25 h⁻¹; F ([2]; mice plasma, 550 mg/kg (v.o.), 550 mg/kg): 36.1%; Mutagenicity ([3]; TA 97a +S9, 8 μg/mL): −; Mutagenicity ([3]; TA 97a +S9, 40 μg/mL): −; Mutagenicity ([3]; TA 97a +S9, 200 μg/mL): −; Mutagenicity ([3]; TA 97a +S9, 1,000 μg/mL): −; Mutagenicity ([3]; TA 97a +S9, 5,000 μg/mL): −; Mutagenicity ([3]; TA 97a −S9, 8 μg/mL): −; Mutagenicity ([3]; TA 97a −S9, 40 μg/mL): −; Mutagenicity ([3]; TA 97a −S9, 200 μg/mL): −; Mutagenicity ([3]; TA 97a −S9, 1,000 μg/mL): −; Mutagenicity ([3]; TA 97a −S9, 5,000 μg/mL): −; Mutagenicity ([3]; TA 98 +S9, 8 μg/mL): −; Mutagenicity ([3]; TA 98 +S9, 40 μg/mL): −; Mutagenicity ([3]; TA 98 +S9, 200 μg/mL): −; Mutagenicity ([3]; TA 98 +S9, 1,000 μg/mL): −; Mutagenicity ([3]; TA 98 +S9, 5,000 μg/mL): −; Mutagenicity ([3]; TA 98 −S9, 8 μg/mL): −; Mutagenicity ([3]; TA 98 −S9, 40 μg/mL): −; Mutagenicity ([3]; TA 98 −S9, 200 μg/mL): −; Mutagenicity ([3]; TA 98 −S9, 1,000 μg/mL): −; Mutagenicity ([3]; TA 98 −S9, 5,000 μg/mL): −; Mutagenicity ([3]; TA 100 +S9, 8 μg/mL): −; Mutagenicity ([3]; TA 100 +S9, 40 μg/mL): −; Mutagenicity ([3]; TA 100 +S9, 200 μg/mL): −; Mutagenicity ([3]; TA 100 +S9, 1,000 μg/mL): −; Mutagenicity ([3]; TA 100 +S9, 5,000 μg/mL): −; Mutagenicity ([3]; TA 100 −S9, 8 μg/mL): −; Mutagenicity ([3]; TA 100 −S9, 40 μg/mL): −; Mutagenicity ([3]; TA 100 −S9, 200 μg/mL): −; Mutagenicity ([3]; TA 100 −S9, 1,000 μg/mL): −; Mutagenicity ([3]; TA 100 −S9, 5,000 μg/mL): −; Mutagenicity ([3]; TA 102 +S9, 8 μg/mL): −; Mutagenicity ([3]; TA 102 +S9, 40 μg/mL): −; Mutagenicity ([3]; TA 102 +S9, 200 μg/mL): −; Mutagenicity ([3]; TA 102 +S9, 1,000 μg/mL): −; Mutagenicity ([3]; TA 102 +S9, 5,000 μg/mL): −; Mutagenicity ([3]; TA 102 −S9, 8 μg/mL): −; Mutagenicity ([3]; TA 102 −S9, 40 μg/mL): −; Mutagenicity ([3]; TA 102 −S9, 200 μg/mL): −; Mutagenicity ([3]; TA 102 −S9, 1,000 μg/mL): −; Mutagenicity ([3]; TA 102 −S9, 5,000 μg/mL): −; Mutagenicity ([3]; TA 1535 +S9, 8 μg/mL): −; Mutagenicity ([3]; TA 1535 +S9, 40 μg/mL): −; Mutagenicity ([3]; TA 1535 +S9, 200 μg/mL): −; Mutagenicity ([3]; TA 1535 +S9, 1,000 μg/mL): −; Mutagenicity ([3]; TA 1535 +S9, 5,000 μg/mL): −; Mutagenicity ([3]; TA 1535 −S9, 8 μg/mL): −; Mutagenicity ([3]; TA 1535 −S9, 40 μg/mL): −; Mutagenicity ([3]; TA 1535 −S9, 200 μg/mL): −; Mutagenicity ([3]; TA 1535 −S9, 1,000 μg/mL): −; Mutagenicity ([3]; TA 1535 −S9, 5,000 μg/mL): −; mutagenic activity in the reverse mutation test ([3]; all strains, absence and presence of S9): no mutagenic activity; EC50 (SARS-COV-2; Severe acute respiratory syndrome coronavirus 2, Huh-7 (MOI 0.1 48 h), read-out: EC50): 100 nM; anti-coronavirus activity with simultaneous adenine (SARS-COV-2; huh-7, adenine at 10 μM): prevented; anti-coronavirus activity (SARS-COV-2 replication) (SARS-COV-2; huh-7, treatment just after inoculation): concentration dependent inhibition
